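48-hour exposure; five concentrations; linearly interpolated endpoints. GI50: concentration for 50% inhibition of growth.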 Calls of active or inactive are those of the source. No stated cut-off is given here; in the data, active = GI50 up to about 1.1 µM and inactive = higher. Where a SMILES comes first, the peptide text is derived from it. The star is where a group is joined. Boc = CC(C)(C)OC(=O)*; OBn = c1ccc(CO*)cc1
Tests used:
Assay in all cases: DTP human tumour cell line panel, 48 h
Hs-578T = test system: Hs-578T
ACHN = test system: ACHN
SF-539 = test system: SF-539
HCC 2998 = test system: HCC 2998
PC-3 = test system: PC-3
UO-31 = test system: UO-31
MDA-MB-231 = test system: MDA-MB-231
MDA-N = test system: MDA-N
UACC-62 = test system: UACC-62
SK-MEL-5 = test system: SK-MEL-5
SN12C = test system: SN12C
HOP-62 = test system: HOP-62
IGROV-1 = test system: IGROV-1
KM12 = test system: KM12
CAKI-1 = test system: CAKI-1
A549 = test system: A549
SF-268 = test system: SF-268
DU-145 = test system: DU-145
BT-549 = test system: BT-549

Row | SMILES | GI50 (Hs-578T) | GI50 (ACHN) | GI50 (SF-539) | GI50 (HCC 2998) | GI50 (PC-3) | GI50 (UO-31) | GI50 (MDA-MB-231) | GI50 (MDA-N) | GI50 (UACC-62) | GI50 (SK-MEL-5) | GI50 (SN12C) | GI50 (HOP-62) | GI50 (IGROV-1) | GI50 (KM12) | GI50 (CAKI-1) | GI50 (A549) | GI50 (SF-268) | GI50 (DU-145) | GI50 (BT-549)
1 | COc1cc([N+](=O)[O-])c(S(=O)(=O)[O-])cc1-[n+]1nc(C(=O)Nc2ccccc2)nn1-c1ccc([N+](=O)[O-])c(S(=O)(=O)O)c1 | > 100 µM (inactive) | > 100 µM (inactive) | > 100 µM (inactive) | > 100 µM (inactive) | > 100 µM (inactive) | > 100 µM (inactive) | 52.2 µM (inactive) | > 100 µM (inactive) | > 100 µM (inactive) | > 100 µM (inactive) | > 100 µM (inactive) | > 100 µM (inactive) | > 100 µM (inactive) | > 100 µM (inactive) | > 100 µM (inactive) | > 100 µM (inactive) | > 100 µM (inactive) | > 100 µM (inactive) | 
2 | COc1ccc(C(Cl)=C(c2ccc(OCCN(C)C)cc2)c2ccc(OCCN(C)C)cc2)cc1 |  | 1.82 µM (inactive) | 1.57 µM (inactive) | 2.26 µM (inactive) |  | 1.58 µM (inactive) |  |  | 1.7 µM (inactive) | 1.73 µM (inactive) | 2.65 µM (inactive) | 3.14 µM (inactive) | 3.03 µM (inactive) | 1.37 µM (inactive) | 4.6 µM (inactive) | 1.83 µM (inactive) | 1.84 µM (inactive) |  | 
3 | COc1ccc(CNc2cnc3ccc(N)cc3n2)cc1 |  | > 100 µM (inactive) | > 100 µM (inactive) | > 100 µM (inactive) |  | > 100 µM (inactive) |  |  |  | 35.3 µM (inactive) | > 100 µM (inactive) | > 100 µM (inactive) |  | > 100 µM (inactive) | > 100 µM (inactive) | > 100 µM (inactive) | > 100 µM (inactive) |  | 
4 | COc1ccc(Cn2nc(OCc3ccccc3)c3cc([N+](=O)[O-])ccc32)cc1 | > 100 µM (inactive) | > 100 µM (inactive) | > 100 µM (inactive) | 99.3 µM (inactive) |  |  | > 100 µM (inactive) | > 100 µM (inactive) | > 100 µM (inactive) | > 100 µM (inactive) | > 100 µM (inactive) | > 100 µM (inactive) | > 100 µM (inactive) | > 100 µM (inactive) |  | > 100 µM (inactive) | > 100 µM (inactive) | > 100 µM (inactive) | 
5 | CN(C)CC1COC2Cc3ccccc3C1O2 (stereo not drawn) | > 100 µM (inactive) | > 100 µM (inactive) | > 100 µM (inactive) | > 100 µM (inactive) | > 100 µM (inactive) | > 100 µM (inactive) | > 100 µM (inactive) | > 100 µM (inactive) |  | > 100 µM (inactive) | > 100 µM (inactive) | > 100 µM (inactive) | > 100 µM (inactive) | > 100 µM (inactive) | > 100 µM (inactive) | > 100 µM (inactive) | > 100 µM (inactive) | > 100 µM (inactive) | 
6 | CN(C)CCNC(=O)c1cccc2[nH]c(-c3cccnc3)nc12 |  | 16.9 µM (inactive) | 17.7 µM (inactive) | 17.1 µM (inactive) |  | 17.8 µM (inactive) |  |  | 18.9 µM (inactive) | 16.9 µM (inactive) | 18.2 µM (inactive) | 18.5 µM (inactive) | 32.5 µM (inactive) | 36.5 µM (inactive) | 27.6 µM (inactive) | 19.8 µM (inactive) | 27.9 µM (inactive) |  | 
7 | O=c1[nH]nc(NCCc2ccccc2)c2nnn(Cc3ccccc3)c12 |  | > 100 µM (inactive) |  | > 100 µM (inactive) | > 100 µM (inactive) | > 100 µM (inactive) | > 100 µM (inactive) |  |  | > 100 µM (inactive) | > 100 µM (inactive) | > 100 µM (inactive) |  | > 100 µM (inactive) | > 100 µM (inactive) | > 100 µM (inactive) | > 100 µM (inactive) | > 100 µM (inactive) | > 100 µM (inactive)
8 | NC1(CCCCCCCCCCC(=O)O)CNCCNCCNCCNC1 |  | 55.3 µM (inactive) | 54.1 µM (inactive) | 15.2 µM (inactive) |  | > 100 µM (inactive) |  |  | 47.6 µM (inactive) | 38.9 µM (inactive) | 23.8 µM (inactive) | 23.1 µM (inactive) | 26.9 µM (inactive) | 48.9 µM (inactive) | 84.1 µM (inactive) | 57.5 µM (inactive) | > 100 µM (inactive) |  | 
9 | NS(=O)(=O)c1cc2c(cc1Cl)NCNS2(=O)=O [HYDROCHLOROTHIAZIDE] | > 100 µM (inactive) | > 100 µM (inactive) | > 100 µM (inactive) | > 100 µM (inactive) | > 100 µM (inactive) | > 100 µM (inactive) | > 100 µM (inactive) | > 100 µM (inactive) |  | > 100 µM (inactive) | > 100 µM (inactive) | > 100 µM (inactive) | > 100 µM (inactive) | > 100 µM (inactive) | > 100 µM (inactive) | > 100 µM (inactive) | > 100 µM (inactive) | > 100 µM (inactive) | 
10 | C=C(C)[C@H]1CC(=O)[C@@]2(C)C[C@H]3O[C@]3(C)CC/C=C(\C)CC[C@H]12 |  | 42.9 µM (inactive) | 42 µM (inactive) | > 100 µM (inactive) | 34.7 µM (inactive) | 57.1 µM (inactive) | 84.1 µM (inactive) | 49 µM (inactive) | 28.1 µM (inactive) | 32.2 µM (inactive) | 23.6 µM (inactive) | 74.1 µM (inactive) | 73.1 µM (inactive) | 16 µM (inactive) | 28.2 µM (inactive) | 58.1 µM (inactive) | 77.3 µM (inactive) | 99.5 µM (inactive) | 
11 | CC(C)(C)OC(=O)NC(Cc1ccccc1)C(=O)NC(Cc1ccccc1)C(=O)NCC(=O)OCc1ccccc1 (stereo not drawn) (Boc-Phe-Phe-Gly-OBn; configuration not given here) |  | 47.3 µM (inactive) | 19 µM (inactive) | 16.3 µM (inactive) | 16.3 µM (inactive) | 41 µM (inactive) | > 10 µM (inactive) | 19.9 µM (inactive) | 16.3 µM (inactive) |  | 21.7 µM (inactive) | 31.1 µM (inactive) | 13.2 µM (inactive) |  | 57.4 µM (inactive) |  | 15.3 µM (inactive) | 17.9 µM (inactive) | 
12 | CC[C@]1(Cc2ccc(OC)c(OC)c2)[C@@H]2C[C@@H](C3OCCO3)ON2O[C@H](OC2CCCC2(c2ccccc2)c2ccccc2)[C@@H]1OC(C)=O (stereo partly drawn) |  | 18.1 µM (inactive) | 40.4 µM (inactive) |  | 24.4 µM (inactive) | 20.6 µM (inactive) | 44.3 µM (inactive) | 36.1 µM (inactive) | 37.4 µM (inactive) | 18.5 µM (inactive) | 31.3 µM (inactive) | 19.6 µM (inactive) | 23.3 µM (inactive) | 15.6 µM (inactive) | 32.8 µM (inactive) | 24 µM (inactive) | 19.9 µM (inactive) | 26.6 µM (inactive) | 25.6 µM (inactive)
13 | Cc1cc(C2(O)C=C(C(C)(C)C)C(=O)C(C(C)(C)C)=C2)c(C)cc1C1(O)C=C(C(C)(C)C)C(=O)C(C(C)(C)C)=C1 |  | > 100 µM (inactive) | > 100 µM (inactive) |  | > 100 µM (inactive) | > 100 µM (inactive) | > 100 µM (inactive) | > 100 µM (inactive) | > 100 µM (inactive) | > 100 µM (inactive) | > 100 µM (inactive) | > 100 µM (inactive) | > 100 µM (inactive) | > 100 µM (inactive) | > 100 µM (inactive) | > 100 µM (inactive) | > 100 µM (inactive) | > 100 µM (inactive) | > 100 µM (inactive)
14 | COC(=O)[C@@H](NC(=O)c1ccc(CNC(=O)/C(C)=C/c2ccccc2)cc1)C(C)C |  | > 100 µM (inactive) | > 100 µM (inactive) | 26.9 µM (inactive) | > 100 µM (inactive) | > 100 µM (inactive) | > 100 µM (inactive) | 66.5 µM (inactive) | 70 µM (inactive) | 68.4 µM (inactive) | > 100 µM (inactive) | > 100 µM (inactive) | > 100 µM (inactive) | 36.1 µM (inactive) | > 100 µM (inactive) | > 100 µM (inactive) | > 100 µM (inactive) | > 100 µM (inactive) | > 100 µM (inactive)
15 | COC(=O)C1(Cc2ccccc2)Cc2ccccc2C1 | 27.5 µM (inactive) | 18.7 µM (inactive) | 50.9 µM (inactive) | 29.6 µM (inactive) | 29.7 µM (inactive) | 7.73 µM (inactive) | 32.7 µM (inactive) | 17.3 µM (inactive) | 21.5 µM (inactive) | 15.7 µM (inactive) | 25.4 µM (inactive) | 32.1 µM (inactive) | 28.4 µM (inactive) | 21.8 µM (inactive) | 18.5 µM (inactive) | 26.7 µM (inactive) | 23.1 µM (inactive) | 30.8 µM (inactive) | 
16 | C[N+](C)(C)CCOP(=O)([O-])OCCNC(=O)c1ccc2ccccc2c1 |  | > 100 µM (inactive) | > 100 µM (inactive) | > 100 µM (inactive) | > 100 µM (inactive) | > 100 µM (inactive) | > 100 µM (inactive) | > 100 µM (inactive) | > 100 µM (inactive) | > 100 µM (inactive) | > 100 µM (inactive) | > 100 µM (inactive) | > 100 µM (inactive) | > 100 µM (inactive) | > 100 µM (inactive) | > 100 µM (inactive) | > 100 µM (inactive) | > 100 µM (inactive) | 2.05 µM (inactive)
17 | CN(C)CCCNc1ccc2c(=O)n(CCN(C)C)c(=O)n3c4ccccc4c(=O)c1c23 | 1.49 µM (inactive) | 0.0752 µM (active) | 0.486 µM (active) | 0.112 µM (active) | 0.258 µM (active) | 0.355 µM (active) | 0.164 µM (active) | 0.133 µM (active) | 0.342 µM (active) | 0.35 µM (active) | 0.103 µM (active) | 0.351 µM (active) | 0.148 µM (active) | 0.159 µM (active) | 0.211 µM (active) | 0.155 µM (active) | 0.603 µM (active) | 0.124 µM (active) | 
